Results published in patent US20030180339A1, “Topical treatment of skin” (priority 2002, published 2003).

System: sebum
Experiment: Oil reduction potential of moisturising gels, blinded randomised study in India, Sebumeter SM810 (Example 34)
Assay type: in vivo, human
Procedure: A study was conducted on 37 normal volunteers in India to determine the oil reduction potential of moisturising gels containing sebum reduction agents.
This study was a blinded, randomised study comparing 2 test gels (containing Cedar wood and Poplar bud) with standard preparation (containing Elubiol).
Women volunteers between the age of 17 and 19 years were screened by measuring sebumeter readings of the left forehead using a Sebumeter SM810. Those volunteers had subumeter reading of […] or above.
These volunteers were instructed to avoid any other face cream, face wash or any other cosmetics during the 8 weeks of the study. After recruitment, volunteers were instructed to use the face wash for the first 2 weeks. This period was considered as the conditioning period.
A baseline sebumeter reading was taken at the end of the conditioning period on 4 sites i.e. left forehead, left cheek, right forehead, and right cheek. Tubes containing the test medicines (which were coded and randomly allocated to each site) were dispensed to the volunteers. Each volunteer was given two test gels, one for left side of the face and the other for right side of the face. […]
The volunteer was requested to make a note of application of face wash and face cream daily on the given diary sheets. Sebumeter readings were taken 3 weeks and 6 weeks later.

Compound: CCOC(=O)N1CCN(c2ccc(OC[C@H]3CO[C@](Cn4ccnc4)(c4ccc(Cl)cc4Cl)O3)cc2)CC1 [Elubiol, dichlorophenyl-imidazoltioxolan]
- effect on sebumeter readings, comparison between treatments (at 6 weeks): improved
- fall in the sebum reading at 6 weeks as compared to 3 weeks (gel twice a day): significantly greater fall
